Values of other authors in patent publication US20110160143A1, “Topical Acyl Glutathione Psoriasis Compositions” (priority 2009, published 2011).

Test system: HIV patients
Conditions: oral administration

For O=C(O)CCCCC1CCSS1 (stereo not drawn) [alpha-lipoic acid, Alpha-lipoic acid], the glutathione levels is given as “raises glutathione levels” and the safety and tolerability is given as “extremely safe and well tolerated”.
